Data on 63 molecules can be found in US8338465B2, “Cyclic carboxylic acid rhodanine derivatives for the treatment and prevention of tuberculosis” (priority 2006, dated 2012).

This assay addresses T1, dihydrolipoamide acyltransferase (DlaT) (Mycobacterium tuberculosis, UniProt P9WIS7).
T1 sequence (P9WIS7 1-553): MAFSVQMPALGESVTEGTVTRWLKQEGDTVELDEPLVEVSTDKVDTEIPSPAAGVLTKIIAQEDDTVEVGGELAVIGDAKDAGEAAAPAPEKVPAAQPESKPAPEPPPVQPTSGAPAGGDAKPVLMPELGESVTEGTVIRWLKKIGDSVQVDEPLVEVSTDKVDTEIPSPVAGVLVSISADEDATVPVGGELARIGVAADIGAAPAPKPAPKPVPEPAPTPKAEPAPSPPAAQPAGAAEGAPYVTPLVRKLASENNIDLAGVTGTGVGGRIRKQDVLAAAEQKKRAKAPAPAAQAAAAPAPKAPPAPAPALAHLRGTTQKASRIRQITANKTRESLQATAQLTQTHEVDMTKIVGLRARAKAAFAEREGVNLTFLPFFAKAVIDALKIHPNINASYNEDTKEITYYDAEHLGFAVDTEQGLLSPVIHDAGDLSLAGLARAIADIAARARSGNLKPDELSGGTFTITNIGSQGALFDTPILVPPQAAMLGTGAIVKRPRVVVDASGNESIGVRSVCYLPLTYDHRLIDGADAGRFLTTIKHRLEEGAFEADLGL
As to the kind of experiment: DlaT inhibition (Dlat IC50); DTNB peroxidase assay with Lpd, DlaT and AhpD. The format is biochemical. The note with it: Table 1, Compounds A1 to A294; read-out: Dlat IC50 category.
Take `O=C(O)c1cccc(N2C(=O)C(=Cc3ccc(-c4cc(Cl)cc(Cl)c4)o3)SC2=S)c1` [Compound A121]: the 50% inhibitory concentration (IC50) (commonly the point on the concentration scale where inhibition reaches its midpoint) lay within 11 to 40 µM.

On to `CN(C)Cc1ccc(-c2ccc(C=C3SC(=S)N(c4cccc(C(=O)O)c4)C3=O)o2)cc1` [Compound A122], for which the IC50 is 11 to 40 µM.

With `O=C(O)c1cccc(N2C(=O)C(=Cc3ccc(-c4ccc(Br)cc4)o3)SC2=S)c1` [Compound A123], the IC50 is 11 to 40 µM.

On to `O=C(O)c1cccc(N2C(=O)C(=Cc3ccc(-c4ccc(O)cc4Cl)o3)SC2=S)c1` [Compound A124], for which the IC50 is below 10 µM.

Take `CN(C)c1cccc(-c2ccc(C=C3SC(=S)N(c4cccc(C(=O)O)c4)C3=O)o2)c1` [Compound A125]: the IC50 is below 10 µM.

For `C#Cc1ccc(-c2ccc(C=C3SC(=S)N(c4cccc(C(=O)O)c4)C3=O)o2)cc1` [Compound A126], the IC50 lay in the range of 11 to 40 µM.

Take `O=C(O)c1cccc(N2C(=O)C(=Cc3ccc(-c4cccc([N+](=O)[O-])c4)o3)SC2=S)c1` [Compound A127]: the IC50 is below 10 µM.

As to `O=C(O)c1ccc(Cl)c(N2C(=O)C(=Cc3ccc(-c4cccc([N+](=O)[O-])c4)o3)SC2=S)c1` [Compound A128], the 50% inhibitory concentration (IC50) is below 10 µM.

As for `O=C(O)c1cccc(N2C(=O)C(=Cc3ccc(-c4ccccc4[N+](=O)[O-])o3)SC2=S)c1` [Compound A129], the IC50 was above 41 µM.

Regarding `O=C(O)c1cccc(N2C(=O)C(=Cc3ccc(-c4ccc([N+](=O)[O-])cc4)o3)SC2=S)c1` [Compound A130], the IC50 lay in the range of 11 to 40 µM.

Regarding `O=C(O)c1cccc(N2C(=O)C(=Cc3ccc(-c4ccc(Cl)cc4[N+](=O)[O-])o3)SC2=S)c1` [Compound A131], the half-inhibitory concentration (IC50) lay in the range of 11 to 40 µM.

In the case of `O=C(O)c1cccc(N2C(=O)C(=Cc3ccc(-c4ccccc4Br)o3)SC2=S)c1` [Compound A132], the IC50 lay in the range of 11 to 40 µM.

On to `CC(C)(C)c1ccc(-c2ccc(C=C3SC(=S)N(c4cccc(C(=O)O)c4)C3=O)o2)c(O)c1` [Compound A133], for which the IC50 was below 10 µM.

`Cc1ccccc1-c1ccc(C=C2SC(=S)N(c3cccc(C(=O)O)c3)C2=O)o1` [Compound A134]: the IC50 is 11 to 40 µM.

In the case of `COc1ccccc1-c1ccc(C=C2SC(=S)N(c3cccc(C(=O)O)c3)C2=O)o1` [Compound A135], the IC50 was below 10 µM.

Turning to `O=C(O)c1ccc(Cl)c(N2C(=O)C(=Cc3ccc(-c4ccc(N5CCOCC5)cc4)o3)SC2=S)c1` [Compound A137], the IC50 was below 10 µM.

As for `O=C(O)c1cccc(N2C(=O)C(=Cc3ccc(-c4ccccc4F)o3)SC2=S)c1` [Compound A138], the IC50 fell in the range of 11 to 40 µM.

In the case of `COc1ccccc1-c1ccc(C=C2SC(=S)N(c3cc(C(=O)O)ccc3F)C2=O)o1` [Compound A139], the IC50 was below 10 µM.

As to `COc1ccccc1-c1ccc(C=C2SC(=S)N(c3cc(C(=O)O)ccc3Cl)C2=O)o1` [Compound A140], the IC50 is below 10 µM.

Turning to `COc1ccccc1-c1ccc(C=C2SC(=S)N(c3cc(C(=O)O)ccc3C)C2=O)o1` [Compound A141], the IC50 is below 10 µM.

As to `COc1ccccc1-c1ccc(C=C2SC(=S)N(c3cccc(C(=O)O)c3C)C2=O)o1` [Compound A142], the concentration for half-maximal inhibition (IC50) was below 10 µM.

As to `N#Cc1c(F)cccc1-c1ccc(C=C2SC(=S)N(c3cccc(C(=O)O)c3)C2=O)o1` [Compound A143], the IC50 fell in the range of 11 to 40 µM.

Regarding `Cc1ccccc1-c1ccc(C=C2SC(=S)N(c3cc(C(=O)O)ccc3F)C2=O)o1` [Compound A144], the IC50 is below 10 µM.

With `Cc1ccccc1-c1ccc(C=C2SC(=S)N(c3cc(C(=O)O)ccc3C)C2=O)o1` [Compound A145], the IC50 is below 10 µM.

With `COc1ccc(-c2ccc(C=C3SC(=S)N(c4cccc(C(=O)O)c4)C3=O)o2)cc1Cl` [Compound A146], the IC50 was below 10 µM.

Regarding `Cc1ccc(-c2ccc(C=C3SC(=S)N(c4cccc(C(=O)O)c4)C3=O)o2)cc1` [Compound A147], the concentration for half-maximal inhibition (IC50) lay within 11 to 40 µM.

As for `Cc1cc(F)ccc1-c1ccc(C=C2SC(=S)N(c3cccc(C(=O)O)c3)C2=O)o1` [Compound A148], the IC50 is below 10 µM.

As for `Cc1cc(F)ccc1-c1ccc(C=C2SC(=S)N(c3cc(C(=O)O)ccc3F)C2=O)o1` [Compound A149], the IC50 was below 10 µM.

Consider `Cc1ccc(-c2ccc(C=C3SC(=S)N(c4cccc(C(=O)O)c4)C3=O)o2)c(F)c1` [Compound A150], for which the IC50 is 11 to 40 µM.

`Cc1ccc(-c2ccc(C=C3SC(=S)N(c4cc(C(=O)O)ccc4F)C3=O)o2)c(F)c1` [Compound A151]: the IC50 is below 10 µM.

Regarding `COc1ccc(-c2ccc(C=C3SC(=S)N(c4cccc(C(=O)O)c4)C3=O)o2)cc1` [Compound A152], the IC50 lay in the range of 11 to 40 µM.

For `O=C(O)c1cccc(N2C(=O)C(=Cc3ccc(-c4ccc(F)cc4F)o3)SC2=S)c1` [Compound A153], the IC50 is below 10 µM.

Consider `O=C(O)c1ccc(F)c(N2C(=O)C(=Cc3ccc(-c4ccc(F)cc4F)o3)SC2=S)c1` [Compound A154], for which the IC50 was below 10 µM.

As to `Cc1ccc(-c2ccc(C=C3SC(=S)N(c4cccc(C(=O)O)c4)C3=O)o2)c(C)c1` [Compound A155], the IC50 is 11 to 40 µM.

In the case of `Cc1ccc(-c2ccc(C=C3SC(=S)N(c4cc(C(=O)O)ccc4F)C3=O)o2)c(C)c1` [Compound A156], the IC50 is below 10 µM.

Regarding `CC(C)(C)OC(=O)Nc1ccccc1-c1ccc(C=C2SC(=S)N(c3cccc(C(=O)O)c3)C2=O)o1` [Compound A157], the IC50 is above 41 µM.

Consider `Nc1ccccc1-c1ccc(C=C2SC(=S)N(c3cccc(C(=O)O)c3)C2=O)o1` [Compound A158], for which the IC50 was above 41 µM.

As for `COc1ccc(-c2ccc(C=C3SC(=S)N(c4cccc(C(=O)O)c4)C3=O)o2)c(C)c1` [Compound A159], the IC50 was in the range of 11 to 40 µM.

`COc1ccc(-c2ccc(C=C3SC(=S)N(c4cc(C(=O)O)ccc4F)C3=O)o2)c(C)c1` [Compound A160]: the IC50 is below 10 µM.

As for `Cc1ccccc1-c1cccc(C=C2SC(=S)N(c3cc(C(=O)O)ccc3F)C2=O)n1` [Compound A161], the IC50 is below 10 µM.

For the molecule `O=C(O)c1cccc(N2C(=O)C(=Cc3ccc(-c4ccccc4O)o3)SC2=S)c1` [Compound A162], the IC50 is below 10 µM.

With `O=C(O)c1ccc(F)c(N2C(=O)C(=Cc3ccc(-c4ccccc4O)o3)SC2=S)c1` [Compound A163], the IC50 was below 10 µM.

In the case of `CC(C)(C)OC(=O)Nc1ccccc1-c1ccc(C=C2SC(=S)N(c3cc(C(=O)O)ccc3F)C2=O)o1` [Compound A164], the IC50 lay in the range of 11 to 40 µM.

Take `Cc1ccc(-c2ccc(C=C3SC(=S)N(c4cc(C(=O)O)ccc4F)C3=O)o2)cc1` [Compound A165]: the IC50 is below 10 µM.

For the molecule `COc1ccc(-c2ccc(C=C3SC(=S)N(c4cc(C(=O)O)ccc4F)C3=O)o2)cc1` [Compound A166], the IC50 was below 10 µM.

Turning to `COc1ccc(-c2ccc(C=C3SC(=S)N(c4cccc(C(=O)O)c4)C3=O)o2)c(OC)c1` [Compound A167], the 50% inhibitory concentration (IC50) is below 10 µM.

Turning to `COc1ccc(-c2ccc(C=C3SC(=S)N(c4cc(C(=O)O)ccc4F)C3=O)o2)c(OC)c1` [Compound A168], the IC50 is below 10 µM.

Turning to `Cc1cc(Cl)ccc1-c1ccc(C=C2SC(=S)N(c3cccc(C(=O)O)c3)C2=O)o1` [Compound A169], the IC50 was below 10 µM.

`Cc1cc(Cl)ccc1-c1ccc(C=C2SC(=S)N(c3cc(C(=O)O)ccc3F)C2=O)o1` [Compound A170]: the IC50 is below 10 µM.

For `Cc1cccc(C)c1-c1ccc(C=C2SC(=S)N(c3cccc(C(=O)O)c3)C2=O)o1` [Compound A171], the IC50 fell in the range of 11 to 40 µM.

Take `Cc1cccc(C)c1-c1ccc(C=C2SC(=S)N(c3cc(C(=O)O)ccc3F)C2=O)o1` [Compound A172]: the IC50 is below 10 µM.

As to `Cc1ccccc1-c1cccc(C=C2SC(=S)N(c3cccc(C(=O)O)c3)C2=O)c1` [Compound A173], the IC50 lay in the range of 11 to 40 µM.

As for `Cc1ccccc1-c1cccc(C=C2SC(=S)N(c3cc(C(=O)O)ccc3F)C2=O)c1` [Compound A174], the IC50 is below 10 µM.

Turning to `COc1cc(F)ccc1-c1ccc(C=C2SC(=S)N(c3cccc(C(=O)O)c3)C2=O)o1` [Compound A175], the IC50 is below 10 µM.

Take `COc1cc(F)ccc1-c1ccc(C=C2SC(=S)N(c3cc(C(=O)O)ccc3F)C2=O)o1` [Compound A176]: the IC50 was below 10 µM.

For `COc1ccc(-c2ccc(C=C3SC(=S)N(c4cccc(C(=O)O)c4)C3=O)o2)cc1F` [Compound A177], the IC50 was below 10 µM.

Regarding `COc1ccc(-c2ccc(C=C3SC(=S)N(c4cc(C(=O)O)ccc4F)C3=O)o2)cc1F` [Compound A178], the IC50 is below 10 µM.

As to `O=C(O)c1cccc(N2C(=O)C(=Cc3ccc(-c4ccccc4OCc4ccccc4)o3)SC2=S)c1` [Compound A179], the IC50 was below 10 µM.

Regarding `O=C(O)c1ccc(F)c(N2C(=O)C(=Cc3ccc(-c4ccccc4OCc4ccccc4)o3)SC2=S)c1` [Compound A180], the IC50 is below 10 µM.

On to `Cc1cc(C)c(-c2ccc(C=C3SC(=S)N(c4cc(C(=O)O)ccc4F)C3=O)o2)c(C)c1` [Compound A181], for which the IC50 was below 10 µM.

On to `Cc1cc(N(C)C)ccc1-c1ccc(C=C2SC(=S)N(c3cccc(C(=O)O)c3)C2=O)o1` [Compound A182], for which the concentration for half-maximal inhibition (IC50) was below 10 µM.

As to `Cc1cc(N(C)C)ccc1-c1ccc(C=C2SC(=S)N(c3cc(C(=O)O)ccc3F)C2=O)o1` [Compound A183], the IC50 is 11 to 40 µM.

In the case of `Cc1cc(C)c(-c2ccc(C=C3SC(=S)N(c4cccc(C(=O)O)c4)C3=O)o2)c(C)c1` [Compound A184], the IC50 lay in the range of 11 to 40 µM.
